Data from US9140688B2, “Sperm staining and sorting methods” (INGURAN, LLC, priority 2011, dated 2015).

What was measured:
Type in all cases: cell-based
bovine sperm [1] = assay: Post thaw motility of sex sorted, frozen-thawed bovine sperm (Example 1); settings: average over all bulls, Red with 16-17 μl, Yellow with 14-15 μl Hoechst 33342 per 2 ml; for Post thaw motility, average 0 Hour: dye 20 g/L in second TALP
Description: (§1) Sperm was collected from 10 different bulls on a routine collection schedule using an artificial vagina over the course of 4 days. The 10 bulls included both Jersey bulls and Holstein bulls. All ejaculates contained greater than 60% progressive motility and greater than 70% morphological normal sperm. Antibiotics were added within 15 minutes of collection.
(§2) Red food dye treatment 40% —A reduced volume of red food dye No. 40 control was established. Sperm was diluted to 160×10^6 sperm per ml in a modified TALP buffer, as described in Table 1, at a pH of 7.4. Samples collected from Jersey bulls were incubated with 16 μl of Hoechst 33342 per 2 ml of sample for between 45 and 60 minutes at 34° C., while samples collected from Holstein bulls were incubated 17 μl of Hoechst 33342 per 2 ml of sample for between 45 and 60 minutes at 34° C. After incubation an equal volume of a second modified TALP was added reducing the concentration to 80×10^6. The second modified TALP includes the components described in Table 1 with the addition of 4% egg yolk, 40 μM red food dye No. 40 (20 g/L) and the pH dropped to 5.5 with HCl.
Yellow Food dye treatment—Yellow food dye was included in a second group at an equal concentration. Sperm was diluted to 160×10^6 sperm per ml in a modified TALP buffer, as described in Table 1, at a pH of 7.4. Samples collected from Jersey bulls were incubated with 14 μl of Hoechst 33342 per 2 ml of sample for between 45 and 60 minutes at 34° C., while sample collected from Holstein bulls were incubated 15 μl of Hoechst 33342 per 2 ml of sample for between 45 and 60 minutes at 34° C. After incubation an equal volume of a second modified TALP was added reducing the concentration to 80×10^6. The second modified TALP includes the components described in Table 1 with the addition 4% egg yolk, 20 g/L yellow food dye No. 6 and a pH dropped to 5.5 with HCl.
Just prior to sorting, each sample was filtered though a 40 μm nylon mesh. Each sample was sorted with an MoFlo SX XDP (Beckman Coulter, Inc., CA USA) operating at 40 psi. A tris-citrate-fructose sheath fluid was used comprising Tris(hydroxymethyl)aminomethane (Sigma Chemical Co, St. Louis, Mo., USA) citric acid monohydrate (Sigma Chemical Co, St. Louis, Mo., USA) and fructose (Sigma Chemical Co, St. Louis, Mo., USA). Antibiotics were additionally added to the sheath fluid.
Unquenched sperm having the desired sex characteristics were collected into a single tube with a tris-egg yolk catch fluid and the remaining sperm was removed with waste. […]
(§3) Straws were thawed the following day for motility measurements at 0 hour and 3 hours. Percent intact acrosomes were measured as well, and the overall averages over all bulls on each day are illustrated in Table 3. […]

bovine sperm [2] = assay: Post thaw percent intact acrosomes (PIA) of sex sorted bovine sperm (Example 1); settings: average over all bulls
Description: as §1
as §2, with “HCl. […]” for “HCl.”
as §3

elk sperm = assay: Post thaw motility of bulk sorted elk sperm (Example 3); settings: 0 HR; RED TALP with 16 μL, Y6 with 14 μL Hoechst 33342
Description: Each of deer and elk were collected in the Tris-egg yolk catch fluid described as a catch media in Example 1, and shipped for sorting.
A portion of each of the deer and the elk were stained by the red food dye No. 40 treatment 40% with 16 μL Hoechst 33342 and the yellow food dye No. 6 treatment with 14 μL Hoechst 33342 as described in Example 1.
Samples were each bulk sorted with the same machine and parameters described in Example 1. Both sorted X and sorted Y sperm were collected into a single catch. The sorted samples were then frozen like those described in Example 1.
Frozen thawed samples were then tested for post thaw motilities and post thaw DNA fragmentation. Post thaw motilities were slightly higher in Elk sorted with a yellow quencher, while a more significant difference existed in progressive motility. In Table 10, post thaw DNA fragmentation in Elk can be seen at about double after 48 hours when red food dye No. 40 is compared to yellow food dye No. 6 as a dead quencher.

canine sperm = assay: Post thaw motility of sex sorted canine sperm on CASA (Example 4); settings: for Motile, average / Progressive, average: 0 Hr post thaw
Description: Sperm was collected from a single canine at room temperature into CaniPro Chill 5, available from Minitube, Wis., USA, then centrifuged into a pellet and resuspended in a Tris buffer at a pH of 6.8.
Samples were extended to 40×10^6 sperm/ml in 1 ml volumes with the Tris buffer described in Example 1 but set to a pH of 7.2. Ten samples were then stained 4, 4, 5, 5, 7, 8, 8, 9, 9, and 10 μL of Hoechst 33342 and quenched with one of two quenching dyes at a concentration of 50 μM in a second buffer Tris buffer.
Red food dye No. 40 quencher—1 ml Tris at a pH 6.3 was added with red food dye No. 40 into samples stained with 4, 5, 8, 9, 10 μL Hoechst 33342. The red food dye No. 40 was added at a concentration of about 50 μM.
Yellow food dye No. 6 quencher—1 ml Tris at a pH 6.3 was added with yellow food dye No. 6 into samples stained with 4, 5, 7, 8, 9 μL Hoechst 33342. The yellow food dye No. 6 was added at the same concentration as the red food dye No. 40 quencher, at about 50 μM.
5 million cells were sex sorted with a MoFlo SX XPD into 50 mL Falcon tubes having 3.5 mL of a Tris-egg yolk catch fluid, described in Example 1 for both X and Y populations. Two samples were sorted, the red food dye No. 40 quenched treatment with 9 μL Hoechst 33342 and the yellow food dye […] quenched treatment with 7 μL Hoechst 33342.
Straws were then frozen and stored in liquid nitrogen.
Straws were thawed for 30 sec in a 38° C. water bath and their motilities were examined on CASA.
Table 12 illustrates the average motilities and progressive motilities for the sorted treatments. Canine sperm quenched with yellow food dye No. 6 provided about 4.5% more motile sperm in the X population and 6.5% more motile sperm in the Y population. Similarly, the yellow quenched dye provided 7% better progressive motility in the X population and 8% better progressive motility in the Y population.

| SMILES | Post thaw motility, average 3 Hour (bovine sperm [1]) [%] | Post thaw motility, average 0 Hour (bovine sperm [1]) [%] | Average PIA (percent intact acrosomes) (bovine sperm [2]) [%] | Post Thaw Motility Elk, Motile (elk sperm) | Post Thaw Motility Elk, Progressive (elk sperm) | better progressive motility than with red quencher (canine sperm; X population) [%] | more motile sperm than with red quencher (canine sperm; X population) | Motile, average (canine sperm; X population) | Progressive, average (canine sperm; X population) | better progressive motility than with red quencher (canine sperm; Y population) [%] | more motile sperm than with red quencher (canine sperm; Y population) [%] | Motile, average (canine sperm; Y population) | Progressive, average (canine sperm; Y population) |
| --- | --- | --- | --- | --- | --- | --- | --- | --- | --- | --- | --- | --- | --- |
| O=S(=O)([O-])c1ccc(N=Nc2c(O)ccc3cc(S(=O)(=O)[O-])ccc23)cc1.[Na+].[Na+] [Yellow 6, Disodium 6-hydroxy-5-[(4-sulfophenyl)azo]-2-naphthalenesulfononate] | 49.0 | 57.7 | 71.3 | 55.5 | 38.0 | 7 | about 4.5% | 24 | 18.5 | 8 | 6.5 | 25 | 21 |
| COc1cc(S(=O)(=O)O)c(C)cc1N=Nc1c(O)ccc2cc(S(=O)(=O)O)ccc12 [Red 40, 6-hydroxy-5-[(2-methoxy-5-methyl-4-sulfophenyl)azo]-2-naphthalenesulfonic acid, reference compound] | 47.0 | 56.6 | 70.8 | 51.0 | 29.0 |  |  | 19.5 | 11.5 |  |  | 18.5 | 13 |
